Reference: ChEMBL document CHEMBL1140743, “2-Oxotetrahydroquinoline-based antimalarials with high potency and metabolic stability” (J Med Chem, 2008)

Legend:
[1] = (§1) Metabolic stability assessed as half life in mouse liver microsomes; type: ADME, Microsome; conditions: liver microsomes
[2] = tested on: Plasmodium falciparum; assay: Antimalarial activity against chloroquine-sensitive Plasmodium falciparum 3D7 in human red cells; type: functional; conditions: read-out: ED50 (the source's name)
[3] = tested on: Plasmodium falciparum; assay: Displacement of [3H]farnesylpyrophosphate from Plasmodium falciparum protein farnesyltransferase at 0.5 nM by scintillation proximity assay
[4] = tested on: Plasmodium falciparum; assay: Displacement of [3H]farnesylpyrophosphate from Plasmodium falciparum protein farnesyltransferase at 5 nM by scintillation proximity assay
[5] = tested on: Plasmodium falciparum; assay: Antimalarial activity against chloroquine-resistant, pyrimethamine-resistant Plasmodium falciparum K1 in human red cells; type: functional; conditions: read-out: ED50 (the source's name)
[6] = tested on: Plasmodium falciparum; assay: Displacement of [3H]farnesylpyrophosphate from Plasmodium falciparum protein farnesyltransferase at 50 nM by scintillation proximity assay
[7] = organism: Rattus norvegicus; assay: Inhibition of rat protein farnesyltransferase at 5000 nM
[8] = organism: Rattus norvegicus; assay: Inhibition of rat protein farnesyltransferase at 50 nM
[9] = organism: Rattus norvegicus; assay: Inhibition of rat protein farnesyltransferase at 5 nM
[10] = organism: Rattus norvegicus; assay: Inhibition of rat protein farnesyltransferase at 500 nM
[11] = tested on: Liver; assay: as §1; type: ADME, Microsome; conditions: microsomes
[12] = tested on: Plasmodium falciparum; assay: Antimalarial activity against Plasmodium falciparum in human red cells; type: functional; conditions: read-out: ED50 (the source's name)
[13] = Inhibition of Plasmodium falciparum PFT

| half-life [1] [min] | t1/2 [11] [min] | Structure (SMILES) | EC50 [2] [nM] | inhibition [3] [%] | inhibition [4] [%] | EC50 [5] [nM] | inhibition [6] [%] | inhibition [7] [%] | inhibition [8] [%] | inhibition [9] [%] | inhibition [10] [%] | EC50 [12] [nM] | IC50 [13] [nM] |
| --- | --- | --- | --- | --- | --- | --- | --- | --- | --- | --- | --- | --- | --- |
| 17 | – | Cn1cnc(S(=O)(=O)N(CC(=O)NC(C)(C)C)C2Cc3cc(C#N)ccc3N(Cc3cncn3C)C2)c1 (configuration not stated) | – | – | – | – | – | – | – | – | – | – | – |
| – | – | Cn1cncc1CN1C(=O)C(N(Cc2ccc(S(C)(=O)=O)cc2)S(=O)(=O)c2ccccn2)Cc2cc(C#N)ccc21 (configuration not stated) | 1700 | 15 | 60 | 275 | 91 | – | – | – | – | – | – |
| – | – | Cn1cnc(S(=O)(=O)NC2Cc3cc(C#N)ccc3N(Cc3cncn3C)C2=O)c1 (configuration not stated) | – | 0 | 41 | – | 79 | – | – | – | – | – | – |
| – | – | Cn1cnc(S(=O)(=O)N(C(CC(=O)OC(C)(C)C)C(=O)OC(C)(C)C)C2Cc3cc(C#N)ccc3N(Cc3cncn3C)C2=O)c1 (configuration not stated) | 5000 | 0 | 0 | 5000 | 0 | – | – | – | – | – | – |
| – | – | Cn1cnc(S(=O)(=O)N(CC(=O)c2ccsc2)C2Cc3cc(C#N)ccc3N(Cc3cncn3C)C2=O)c1 (configuration not stated) | – | 26 | 79 | – | 98 | – | – | – | – | – | – |
| – | 16 | Cn1cnc(S(=O)(=O)N(Cc2ccc(S(C)(=O)=O)cc2)C2Cc3cc(C#N)ccc3N(Cc3cncn3C)C2)c1 (configuration not stated) | – | – | – | – | – | – | – | – | – | – | – |
| – | – | Cn1cnc(S(=O)(=O)N(Cc2ccccc2)C2Cc3cc(C#N)ccc3N(Cc3cncn3C)C2=O)c1 (configuration not stated) | 175 | 45 | 88 | 100 | 98 | 61 | 0 | 0 | 5 | – | – |
| – | – | COC(=O)N1CCC(CN(C2Cc3cc(C#N)ccc3N(Cc3cncn3C)C2)S(=O)(=O)c2ccccn2)CC1 (configuration not stated) | – | – | – | – | – | – | – | – | – | 15 | 0.5 |
| – | – | C=C(C)CN(C1Cc2cc(C#N)ccc2N(Cc2cncn2C)C1=O)S(=O)(=O)c1cn(C)cn1 (configuration not stated) | 3200 | 4 | 41 | 2000 | 86 | – | – | – | – | – | – |
| 3 | – | Cn1cnc(S(=O)(=O)N(Cc2ccc(C#N)cc2)C2Cc3cc(C#N)ccc3N(Cc3cncn3C)C2)c1 (configuration not stated) | – | – | – | – | – | – | – | – | – | – | – |
| – | – | Cc1ccccc1CN(C1Cc2cc(C#N)ccc2N(Cc2cncn2C)C1=O)S(=O)(=O)c1cn(C)cn1 (configuration not stated) | 5000 | 9 | 12 | 5000 | 45 | – | – | – | – | – | – |
| – | – | Cn1cncc1CN1C(=O)C(N(CC(=O)NC(C)(C)C)S(=O)(=O)c2ccc3c(c2)OCCCO3)Cc2cc(C#N)ccc21 (configuration not stated) | 5000 | 0 | 4 | – | 22 | – | – | – | – | – | – |
| – | – | Cn1cnc(S(=O)(=O)N(Cc2ccc(S(C)(=O)=O)cc2)C2Cc3cc(Br)ccc3N(Cc3cncn3C)C2=O)c1 (configuration not stated) | 850 | 0 | 26 | – | 86 | 56 | 0 | 0 | 0 | – | – |
| – | – | Cn1cnc(S(=O)(=O)N(Cc2ccccc2F)C2Cc3cc(C#N)ccc3N(Cc3cncn3C)C2=O)c1 (configuration not stated) | 800 | 33 | 71 | – | 97 | – | – | – | – | – | – |
| – | – | Cn1cnc(S(=O)(=O)N(CC(=O)NC(C)(C)C)C2Cc3cc(Br)ccc3N(Cc3cncn3C)C2=O)c1 (configuration not stated) | 105 | 24 | 81 | – | 98 | – | – | – | – | – | – |
| – | – | Cn1cnc(S(=O)(=O)N(Cc2ccccn2)C2Cc3cc(C#N)ccc3N(Cc3cncn3C)C2=O)c1 (configuration not stated) | 5000 | 0 | 5 | – | 8 | – | – | – | – | – | – |
| 133 | – | Cn1cnc(S(=O)(=O)N(Cc2ccc(S(C)(=O)=O)cc2)C2Cc3cc(C#N)ccc3N(Cc3cncn3C)C2=O)c1 (configuration not stated) | 80 | 23 | 91 | – | 99 | 73 | 0 | 0 | 23 | – | – |
| 10 | – | Cn1cnc(S(=O)(=O)N(CC(=O)OC(C)(C)C)C2Cc3cc(C#N)ccc3N(Cc3cncn3C)C2)c1 (configuration not stated) | – | – | – | – | – | – | – | – | – | – | – |
| – | – | Cn1cnc(S(=O)(=O)N(Cc2ccc(C(F)(F)F)o2)C2Cc3cc(C#N)ccc3N(Cc3cncn3C)C2=O)c1 (configuration not stated) | 625 | 1 | 67 | 325 | 92 | – | – | – | – | – | – |
| 31 | – | Cn1cncc1CN1C(=O)C(N(CC(=O)NC(C)(C)C)S(=O)(=O)c2cccc(F)c2)Cc2cc(C#N)ccc21 (configuration not stated) | 3600 | 0 | 19 | – | 56 | – | – | – | – | – | – |
| – | – | Cn1cncc1CN1C(=O)C(NS(=O)(=O)c2ccccn2)Cc2cc(Br)ccc21 (configuration not stated) | 5000 | 0 | 15 | 5000 | 36 | – | – | – | – | – | – |
| – | – | Cn1cnc(S(=O)(=O)N(Cc2ccc(F)cc2F)C2Cc3cc(C#N)ccc3N(Cc3cncn3C)C2=O)c1 (configuration not stated) | – | 4 | 27 | – | 80 | – | – | – | – | – | – |
| – | – | COC(=O)C1CCC(CN(C2Cc3cc(C#N)ccc3N(Cc3cncn3C)C2=O)S(=O)(=O)c2cn(C)cn2)CC1 (configuration not stated) | 105 | 21 | 83 | – | 98 | – | – | – | – | – | – |
| – | – | Cn1cnc(S(=O)(=O)NC2Cc3cc(Br)ccc3N(Cc3cncn3C)C2=O)c1 (configuration not stated) | 5000 | 5 | 15 | 3000 | 60 | – | – | – | – | – | – |
| – | – | Cc1c(S(=O)(=O)N(CC(=O)NC(C)(C)C)C2Cc3cc(C#N)ccc3N(Cc3cncn3C)C2=O)ncn1C (configuration not stated) | 5000 | 6 | 11 | 5000 | 24 | – | – | – | – | – | – |

| Structure (SMILES) | half-life [1] [min] | t1/2 [11] [min] | EC50 [2] [nM] | inhibition [3] [%] | inhibition [4] [%] | EC50 [5] [nM] | inhibition [6] [%] | inhibition [7] [%] | inhibition [8] [%] | inhibition [9] [%] | inhibition [10] [%] | EC50 [12] [nM] | IC50 [13] [nM] |
| --- | --- | --- | --- | --- | --- | --- | --- | --- | --- | --- | --- | --- | --- |
| Cn1cnc(S(=O)(=O)N(CC(=O)NC(C)(C)C)C2Cc3cc(C#N)ccc3N(Cc3cncn3C)C2=O)c1 (configuration not stated) | 144 | – | 200 | 25 | 86 | 100 | 98 | 86 | 0 | 0 | 62 | – | – |
| Cn1cnc(S(=O)(=O)N(Cc2ccc(-n3cccn3)cc2)C2Cc3cc(C#N)ccc3N(Cc3cncn3C)C2=O)c1 (configuration not stated) | 9 | – | 80 | 50 | 97 | 150 | 100 | 84 | 4 | 0 | 54 | – | – |
| Cn1cnc(S(=O)(=O)N(CC(=O)OC(C)(C)C)C2Cc3cc(C#N)ccc3N(Cc3cncn3C)C2=O)c1 (configuration not stated) | 21 | – | 35 | 62 | 97 | 30 | 100 | 92 | 23 | 0 | 75 | – | – |
| Cn1cnc(S(=O)(=O)N(Cc2ccc(C#N)cc2)C2Cc3cc(C#N)ccc3N(Cc3cncn3C)C2=O)c1 (configuration not stated) | 40 | – | 2100 | 26 | 56 | 2100 | 91 | – | – | – | – | – | – |
